Measurements published in PMC8271486, “Assessment of Antidiabetic Activity of the Shikonin by Allosteric Inhibition of Protein-Tyrosine Phosphatase 1B (PTP1B) Using State of Art: An In Silico and In Vitro Tactics” (Molecules, 2021).

Target: T1, Protein tyrosine phosphatase 1B (PTP1B) (Homo sapiens, UniProt P18031)
T1 construct: gene PTPN1
T1 sequence (P18031 1-435): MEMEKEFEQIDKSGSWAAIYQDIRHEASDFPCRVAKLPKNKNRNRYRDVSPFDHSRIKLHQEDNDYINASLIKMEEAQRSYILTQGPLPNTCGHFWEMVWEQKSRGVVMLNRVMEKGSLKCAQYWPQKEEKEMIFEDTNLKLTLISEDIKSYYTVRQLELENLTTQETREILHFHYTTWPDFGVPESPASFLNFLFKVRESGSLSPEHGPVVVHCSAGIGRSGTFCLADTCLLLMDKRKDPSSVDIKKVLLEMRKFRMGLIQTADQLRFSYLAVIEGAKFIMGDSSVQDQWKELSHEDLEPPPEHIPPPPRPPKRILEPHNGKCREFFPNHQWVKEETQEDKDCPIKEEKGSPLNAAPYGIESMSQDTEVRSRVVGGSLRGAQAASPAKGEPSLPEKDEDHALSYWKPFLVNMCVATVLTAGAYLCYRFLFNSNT
Assay: pNPP hydrolysis assay ([…] nm) with human recombinant PTP1B; Dixon and Lineweaver-Burk kinetics
Type: biochemical

Question: For `CC(C)=CC[C@@H](O)C1=CC(=O)c2c(O)ccc(O)c2C1=O` [Shikonin, 5,8-dihydroxy-2-[(1R)-1-hydroxy-4-methylpent-3-enyl] naphthalene-1,4-dione], which IC50 is on record?
Answer: The IC50 was 15.5 µM.
